Data as given in patent EP4663631A1, “POLYMORPH AS PROTEIN KINASE MEK INHIBITOR, AND PREPARATION METHOD THEREFOR AND USE THEREOF” (Shanghai Kechow Pharma, Inc., priority 2023, dated 2024).
Read-outs that look alike come from different tables or passages of the source.

Tested on: SK-MEL-2 cells
Assay: MTT proliferation inhibition, NRAS mutant melanoma cell line
Conditions: Homo sapiens, SK-MEL-2, 72 h
Protocol: All cells were provided by Beijing Cancer Hospital. Human melanoma cell line SK-MEL-2 (NRAS Q61R) was cultured with MEM supplemented with 10%FBS and penicillin streptomycin in an incubator at 37 °C and 5% carbon dioxide.
When the confluence of the cultured cells reached more than 80%, the adherent cells were digested with trypsin and the cell precipitate was collected by centrifugation, counted, and 90 µL of the cell suspension was seeded in a 96-well plate at the appropriate density. […] Each concentration was set up three multiple Wells, a total of 9 concentration points. The Wells added with the same volume of 5% DMSO were used as control, and the final concentration of DMSO was 0.5%. After 3 days of drug treatment, the cell viability was detected by MTT, and 10 µL MTT was added to each well and incubated in the incubator for another 4 hours. After the supernatant was discarded and 150 µL DMSO was added to dissolve the crystal, and the absorbance at 490 nm was detected by microplate reader. The above experiments were repeated three times. The dose-effect curve was made and IC50 was calculated by GraphPad Prism 8 software.

- IC50 (read-out: IC5o(nM) 1st): 74.8 nM
- IC50 (read-out: IC5o(nM) 2nd): 68.3 nM
- IC50 (read-out: IC5o(nM) 3rd): 222 nM
- IC50 (read-out: Mean value (nM)): 122 nM
Compound: Cn1cnc2c(F)c(Nc3ccc(Br)cc3F)c(C(=O)NOCCO)cc21 [MEK162]
